Measurements: patent publication US10253052B2, “HBED-bisphosphonates, radiometal conjugates and their use as theranostic agents” (Five Eleven Pharma Inc., priority 2015, dated 2019)

Legend:
[1] = In vivo biodistribution in mice; parameters: species or system normal CD-1 male mice; settings: iv
Protocol: Biodistribution experiments were performed by intravenously administering ^68Ga labeled 1a-h, 2, 3, BPAMD, and [^18F]NaF into normal, healthy male CD-1 mice (25-30 g). The injection activity was 20-30 μCi/animal. […] Organs of interest were harvested, weighed, and counts of radioactivity were measured by a gamma counter. The biodistribution of each sample was calculated as a percentage of the injected dose per gram of wet tissue weight (% ID/g). Tibia and femur bones were harvested and counted as bone samples.

[2] = In vitro binding to hydroxyapatite; settings: 20 mg hydroxyapatite in saline, 10 min at room temperature
Protocol: Hydroxyapatite (20 mg, Sigma-Aldrich, reagent grade powder) was incubated in isotonic saline (1 mL) for 24 h. Subsequently, either ^68Ga labeled 1a-h, 2, 3, BPAMD, or [^18F]NaF (1 μCi) was added to the hydroxyapatite suspension. After vortexing for 10 seconds, the suspension was incubated for 10 min at room temperature. The samples were then centrifuged at 10,000 rpm for 3 min and the supernatant was removed. The hydroxyapatite fraction was washed twice with saline (1 mL). Radioactivity in the combined supernatants and the hydroxyapatite fraction was measured using a gamma counter. The proportion of the ^68Ga complex binding to hydroxyapatite was determined as percent of ^68Ga absorbed to hydroxyapatite.

O=C([O-])CN(CCN(CC(=O)[O-])Cc1cc(CCC(=O)N[C@@H](CC(=O)O)C(=O)O)ccc1[O-])Cc1cc(CCC(=O)NC(P(=O)(O)O)P(=O)(O)O)ccc1[O-].[68Ga+3] [[^68Ga]1e]
bone to blood ratio ([1]; 2 min): 1 | bone to muscle ratio ([1]; 2 min): 5 | Biodistribution: Blood ([1]; 2 min post injection): 8.31 ± 0.57 % dose/g | Biodistribution: Bone ([1]; 2 min post injection): 8.82 ± 0.77 % dose/g | Biodistribution: Brain ([1]; 2 min post injection): 0.20 ± 0.04 % dose/g | Biodistribution: Heart ([1]; 2 min post injection): 2.55 ± 0.06 % dose/g | Biodistribution: Kidney ([1]; 2 min post injection): 24.8 ± 3.02 % dose/g | Biodistribution: Liver ([1]; 2 min post injection): 1.90 ± 0.13 % dose/g | Biodistribution: Lung ([1]; 2 min post injection): 4.00 ± 0.20 % dose/g | Biodistribution: Muscle ([1]; 2 min post injection): 1.71 ± 0.19 % dose/g | Biodistribution: Pancreas ([1]; 2 min post injection): 1.27 ± 0.07 % dose/g | Biodistribution: Skin ([1]; 2 min post injection): 2.54 ± 0.26 % dose/g | Biodistribution: Spleen ([1]; 2 min post injection): 1.72 ± 0.19 % dose/g | bone to blood ratio ([1]; 30 min): 29 | bone to muscle ratio ([1]; 30 min): 67 | Biodistribution: Blood ([1]; 30 min (0.5 hr) post injection): 0.57 ± 0.12 % dose/g | Biodistribution: Bone ([1]; 30 min (0.5 hr) post injection): 16.5 ± 0.56 % dose/g | Biodistribution: Brain ([1]; 30 min (0.5 hr) post injection): 0.02 ± 0.01 % dose/g | Biodistribution: Heart ([1]; 30 min (0.5 hr) post injection): 0.26 ± 0.04 % dose/g | Biodistribution: Kidney ([1]; 30 min (0.5 hr) post injection): 2.26 ± 0.27 % dose/g | Biodistribution: Liver ([1]; 30 min (0.5 hr) post injection): 0.27 ± 0.02 % dose/g | Biodistribution: Lung ([1]; 30 min (0.5 hr) post injection): 0.42 ± 0.08 % dose/g | Biodistribution: Muscle ([1]; 30 min (0.5 hr) post injection): 0.25 ± 0.03 % dose/g | Biodistribution: Pancreas ([1]; 30 min (0.5 hr) post injection): 0.17 ± 0.05 % dose/g | Biodistribution: Skin ([1]; 30 min (0.5 hr) post injection): 0.86 ± 0.22 % dose/g | Biodistribution: Spleen ([1]; 30 min (0.5 hr) post injection): 0.19 ± 0.02 % dose/g | bone to blood ratio ([1]; 60 min): 138 | bone to muscle ratio ([1]; 60 min): 258 | Biodistribution: Blood ([1]; 60 min (1 hr) post injection): 0.11 ± 0.02 % dose/g | Biodistribution: Bone ([1]; 60 min (1 hr) post injection): 14.9 ± 1.45 % dose/g | Biodistribution: Brain ([1]; 60 min (1 hr) post injection): 0.01 ± 0.00 % dose/g | Biodistribution: Heart ([1]; 60 min (1 hr) post injection): 0.08 ± 0.00 % dose/g | Biodistribution: Kidney ([1]; 60 min (1 hr) post injection): 2.12 ± 0.55 % dose/g | Biodistribution: Liver ([1]; 60 min (1 hr) post injection): 0.14 ± 0.01 % dose/g | Biodistribution: Lung ([1]; 60 min (1 hr) post injection): 0.15 ± 0.01 % dose/g | Biodistribution: Muscle ([1]; 60 min (1 hr) post injection): 0.06 ± 0.00 % dose/g | Biodistribution: Pancreas ([1]; 60 min (1 hr) post injection): 0.06 ± 0.01 % dose/g | Biodistribution: Skin ([1]; 60 min (1 hr) post injection): 0.12 ± 0.01 % dose/g | Biodistribution: Spleen ([1]; 60 min (1 hr) post injection): 0.09 ± 0.01 % dose/g | bone to blood ratio ([1]; 120 min): 230 | bone to muscle ratio ([1]; 120 min): 411 | Biodistribution: Blood ([1]; 120 min post injection): 0.08 ± 0.02 % dose/g | Biodistribution: Bone ([1]; 120 min post injection): 17.6 ± 2.61 % dose/g | Biodistribution: Brain ([1]; 120 min post injection): 0.01 ± 0.01 % dose/g | Biodistribution: Heart ([1]; 120 min post injection): 0.06 ± 0.01 % dose/g | Biodistribution: Kidney ([1]; 120 min post injection): 1.41 ± 0.28 % dose/g | Biodistribution: Liver ([1]; 120 min post injection): 0.14 ± 0.02 % dose/g | Biodistribution: Lung ([1]; 120 min post injection): 0.12 ± 0.02 % dose/g | Biodistribution: Muscle ([1]; 120 min post injection): 0.04 ± 0.01 % dose/g | Biodistribution: Pancreas ([1]; 120 min post injection): 0.04 ± 0.01 % dose/g | Biodistribution: Skin ([1]; 120 min post injection): 0.12 ± 0.03 % dose/g | Biodistribution: Spleen ([1]; 120 min post injection): 0.06 ± 0.01 % dose/g | Hydroxyapatite Binding (%) [2]: 95.8 ± 0.9%
